ChEMBL document CHEMBL1132846, “Synthesis and biological evaluation of highly potent analogues of epothilones B and D” (Bioorg Med Chem Lett, 2000)

Assays:
KB 3-1 = assay: Concentration required to inhibit the growth of paclitaxel-sensitive human epidermoid carcinoma cells KB-31 by 50 percent (72 hr exposure); type: functional, cell-based; conditions: KB 3-1, 72 h
KB = assay: Concentration required to inhibit the growth of paclitaxel-resistant human epidermoid carcinoma cells KB-8511 by 50 percent (72 hr exposure); type: functional, cell-based
Sus scrofa [1] = organism: Sus scrofa; assay: Induction of polymerization of porcine brain-derived microtubule protein by 2 uM epothilone B; type: functional
Sus scrofa [2] = organism: Sus scrofa; assay: Concentrations required to induce 50 percent polymerization of porcine brain-derived micro-tubule protein; type: functional

SMILES	IC50 (KB 3-1) [nM]	IC50 (KB) [nM]	Tubulin polymerization (Sus scrofa [1]) [%]	EC50 (Sus scrofa [2]) [nM]
C/C1=C/C[C@@H](c2ccc3c(c2)ncn3C)OC(=O)C[C@H](O)C(C)(C)C(=O)[C@H](C)[C@@H](O)[C@@H](C)CCC1	0.46	0.91	86	–
C/C1=C/C[C@@H](c2ccc3c(c2)nc(C)n3C)OC(=O)C[C@H](O)C(C)(C)C(=O)[C@H](C)[C@@H](O)[C@@H](C)CCC1	0.21	0.73	94	–
C/C(=C\c1ccccn1)[C@@H]1C[C@@H]2O[C@]2(C)CCC[C@H](C)[C@H](O)[C@@H](C)C(=O)C(C)(C)[C@@H](O)CC(=O)O1	0.3	0.3	–	–
C/C(=C\c1csc(C)n1)[C@@H]1C[C@@H]2O[C@]2(C)CCC[C@H](C)[C@H](O)[C@@H](C)C(=O)C(C)(C)[C@@H](O)CC(=O)O1 [PATUPILONE]	0.19	0.18	90	670
Cc1nc2cc([C@@H]3C[C@@H]4O[C@]4(C)CCC[C@H](C)[C@H](O)[C@@H](C)C(=O)C(C)(C)[C@@H](O)CC(=O)O3)ccc2s1	0.13	0.09	83	–
C/C1=C/C[C@@H](c2ccc3sc(C)nc3c2)OC(=O)C[C@H](O)C(C)(C)C(=O)[C@H](C)[C@@H](O)[C@@H](C)CCC1	0.45	0.23	76	930
Cc1nc2cc([C@@H]3C[C@@H]4O[C@]4(C)CCC[C@H](C)[C@H](O)[C@@H](C)C(=O)C(C)(C)[C@@H](O)CC(=O)O3)ccc2n1C	0.14	0.38	99	–
C/C1=C/C[C@@H](/C(C)=C/c2csc(C)n2)OC(=O)C[C@H](O)C(C)(C)C(=O)[C@H](C)[C@@H](O)[C@@H](C)CCC1 [EPOTHILONE D]	2.7	1.44	83	880
C/C(=C\c1csc(C)n1)[C@@H]1C[C@@H]2O[C@@H]2CCC[C@H](C)[C@H](O)[C@@H](C)C(=O)C(C)(C)[C@@H](O)CC(=O)O1 [EPOTHILONE A]	2.15	1.91	69	1120
C[C@H]1CCC[C@@]2(C)O[C@H]2C[C@@H](c2ccc3c(c2)ncn3C)OC(=O)C[C@H](O)C(C)(C)C(=O)[C@H](C)[C@H]1O	0.13	0.46	97	–
CC(=O)O[C@H]1C(=O)[C@@]2(C)[C@H]([C@H](OC(=O)c3ccccc3)[C@]3(O)C[C@H](OC(=O)[C@H](O)[C@@H](NC(=O)c4ccccc4)c4ccccc4)C(C)=C1C3(C)C)[C@]1(OC(C)=O)CO[C@@H]1C[C@@H]2O [PACLITAXEL]	2.92	626	49	–
C/C1=C/C[C@@H](c2ccc3cccnc3c2)OC(=O)C[C@H](O)C(C)(C)C(=O)[C@H](C)[C@@H](O)[C@@H](C)CCC1	0.59	0.38	90	–
C[C@H]1CCC[C@@]2(C)O[C@H]2C[C@@H](c2ccc3cccnc3c2)OC(=O)C[C@H](O)C(C)(C)C(=O)[C@H](C)[C@H]1O	0.11	0.1	78	–
